Laboratory results taken from PMC4738305, “Metabolism and Disposition of Aditoprim in Swine, Broilers, Carp and Rats” (Scientific Reports, 2016).
Read-outs that look alike come from different tables or passages of the source.

How the values were obtained:
[1] = Metabolite profiling of ADP in excreta, plasma and bile (LC-v.ARC/MS-IT-TOF); format: in vivo, carp; conditions: for percentage of the individual metabolite compared with the total concentration of ADP-related: within 6 h after dosing; for Average percentage of ADP and its metabolites in total dose: Carp, Excreta, single oral 5 mg/kg b.w. ^3H-ADP
Description: (§1) Animals (4 swine, 6 broilers, 6 carp, and 3 male and 3 female rats) were housed individually in clean, suspended wire-mesh metabolism cages, designed to separate the urine from the feces (carp were raised in individual aquaria). Each animal was weighed and assigned with a permanent identification number. A single dose of ^3 H-ADP (5 mg/kg b. w., 0.1 Ci/g) was administered via the oral gavage. Excreta were collected on ice at the pre-administration, in the period of 6, 12, and 24 h on day 1 d, and afterwards, intermittently in the period of 24 h up to 14 d. The piscine excreta were collected by changing and collecting raised water. The total volume or weight of each sample was measured and homogenized. The total radioactivity levels were determined through LSC for the recovery calculations. After the preparation, the samples were analyzed through LC/MS-IT-TOF with v. ARC radiometric detection (XenoBioticLaboratories, Inc.) for metabolite profiling. The pretreatment samples were used as controls to determine the background radioactivity or the endogenous nondrug-related ions observed within respective matrices or their extracts.
(§2) A total of 36 animals from each species (swine n = 24) were randomly assigned to six equal treatment groups and administered a single daily dose of ^3 H-ADP at 5 mg/kg b. w. (0.1 Ci/g) through oral gavage for 7 consecutive days. All the animals were housed on the basis of their group in the cages or aquaria throughout the whole study period. A group of animals was slaughtered through exsanguination under diethyl ether inhalation of anesthesia in the period of 6 h, 1, 3, 7, 14, and 21 d after the administration. The blood samples were immediately collected into the heparinized tubes and was centrifuged at 1920 × g at 4 °C for 10 min to obtain the plasma. The tissues from the heart, liver, spleen, lung, kidney, craw (broilers), stomach, intestine, fat, skin, muscle, thymus, pancreas, bile, bladder, hair (scale for carp), genital gland, adrenal glands, swim bladder (carp), brain, lymph, and bursa (broilers) were carefully excised and collected. The tissues were thoroughly rinsed with the deionized water to remove the residuary blood, blotted to dryness, and finally to perform the homogenization. In order to avoid cross-contamination the dissecting instruments were washed during the tissue procurements. The blank tissues were collected in order to provide control matrices. The total radioactivity levels in each sample were determined through LSC. The samples extracted from the plasma, bile, and tissues of the liver, kidney, muscle, and fat/skin were analyzed through LC/MS-IT-TOF and v. ARC radiometric detection for metabolite profiling. The blank samples were used as control to determine the background radioactivity or the endogenous nondrug-related ions observed within respective matrices or their extracts.
(§3) For metabolite profiling, the urine and feces samples from each animals were pooled proportionally to the excreted amount in each sampling period from 0 to 6 h, 6 h to 1 d, 1 to 3 d, 3 to 7 d, and 7 to 14 d post-dose, respectively. All samples were fully homogenized before the process. The pre-dose and blank samples served as the controls for determining the background radioactivity or the endogenous, nondrug-related ions observed within respective matrices or their extracts.
(§4) The urine samples (plasma, bile and raised water for carp) was subjected to solid-phase extraction with an Oasis MCX cartridge (3 mL, […]; Waters, Milford, MA, USA) for metabolite purification and enrichment. The pH value was adjusted to 2.8–3.2 by adding 1 M hydrochloric acid (HCl), and 2 mL of the sample was transferred into MCX cartridge, which was preconditioned with 3 mL of methanol and 3 mL of 0.1 mol/L HCl solution. The cartridge was washed with 3 mL of 0.1 mol/L HCl solution and was eluted with 5 mL of NH4OH/methanol (4:96, v:v). The effluent was concentrated to dryness under a stream of nitrogen at 40 °C. […]

[2] = Concentration and elimination of ADP and its metabolites in liver, kidney, muscle, fat/skin after oral ^3H-ADP for 7 d; format: in vivo, broilers; conditions: for concentration at 0.25 d / concentration at 1 d / concentration at 3 d / concentration at 7 d / concentration at 14 d: oral; for half-life: po
Description: as §2
The feces and tissues (2 g) were diluted with a mixture of methanol and chloroform (1:3, v:v; 2 mL/g homogenate). This procedure was carried out in a fume hood for the safety aspects. The pH value was adjusted to 9.0 with NH4OH. The mixture was vortexed and sonicated for 5 min and 10 min, respectively, and finally the samples were centrifuged at 7690 × g for 10 min. The supernatant was aspirated and then transferred into a new centrifuge tube. The obtained pellet was again subjected to the same process of vortex, ultrasonication, extraction, and centrifugation. The combined supernatant was concentrated under a stream of nitrogen in a water bath at 40 °C. The residue was reconstituted with 0.3 mL of methanol–water (1:9, v:v) before the injection into the LC-v. ARC/MS-IT-TOF system for analysis.
ADP and its metabolites in the prepared samples were determined with a v. ARC radiometric detector and a hybrid IT/TOF mass spectrometer connected to the HPLC system (Shimadzu Corp., Kyoto, Japan). The LC system was equipped with a solvent delivery pump (LC-20AD), an auto-sampler (SIL-20AC), a degasser (DGU-20 A 3), a photodiode array detector (SPD-M20A), a communication base module (CBM-20 A), and a column oven (CTO-20AC). The chromatographic separation was achieved by using an Agilent extend-C18 column (2.1 mm × 150 mm, 5 μm) with a gradient mobile phase of A (0.01% ammonia and 5 mM ammonium acetate in water) and B (methanol) at a flow rate of 0.2 mL/min. The column temperature was maintained at 35 °C. Various HPLC methods were performed because of the large number of different metabolites to be analyzed. For the porcine sample, method 1 started at 5% B and increased to 20% B over 35 min, then to 55% B by 60 min, followed by re-equilibration for another 10 min. For the remaining samples, method 2 started at 10% B and increased to 60% B over 30 min, subsequently was maintained at 60% B for an additional 10 min, and then changed to 90% B over 2 min and maintained for 2 min. Afterwards, a re-equilibration step (decreased to 10% B over 1 min and maintained at 10% B for additional 9 min) was followed. For each matrix, more than 98% of the radioactivity injected into the column was eluted during the running time of the gradient program. […]

[3] = Metabolite profiling of ADP in excreta, plasma and bile (LC-v.ARC/MS-IT-TOF); format: in vivo, swine; conditions: for percentage of the individual metabolite compared with the total concentration of ADP-related: within 6 h after dosing; for Average percentage of ADP and its metabolites in total dose: Swine, single oral 5 mg/kg b.w. ^3H-ADP
Description: as §1, §2, §3, §4

[4] = broiler chicken, kidney, 5 mg/kg b.w.
[5] = broiler chicken, muscle, 5 mg/kg b.w.
[6] = broilers, muscle, 5 mg/kg b. w.
[7] = broiler kidney, after 5 mg/kg b. w. for 7 days, read-out: t1/2 of the individual compound (converted)
[8] = broiler liver, after 5 mg/kg b. w. for 7 days, read-out: t1/2 of the individual compound (converted)
[9] = tissues (liver, kidney, muscle, fat/skin), 5 mg/kg, broilers tissues, read-out: t1/2 of the individual compound, range over tissues

Row | Compound | percentage of the individual metabolite compared with the total concentration of ADP-related ([1]; Carp Bile) [%] | percentage of the individual metabolite compared with the total concentration of ADP-related ([1]; Carp Extra (excreta)) [%] | percentage of the individual metabolite compared with the total concentration of ADP-related ([1]; Carp Plasma) [%] | Average percentage of ADP and its metabolites in total dose [1] [%] | concentration at 0.25 d [2, 4] [ng/g] | concentration at 1 d [2, 4] [ng/g] | concentration at 3 d [2, 4] [ng/g] | concentration at 0.25 d [2, 5] [ng/g] | concentration at 0.25 d ([2]; broilers, fat, 5 mg/kg b. w.) [ng/g] | concentration at 1 d ([2]; broilers, fat, 5 mg/kg b. w.) [ng/g] | concentration at 0.25 d ([2]; broilers, liver, 5 mg/kg b. w.) [ng/g] | concentration at 1 d ([2]; broilers, liver, 5 mg/kg b. w.) [ng/g] | concentration at 3 d ([2]; broilers, liver, 5 mg/kg b. w.) [ng/g] | concentration at 1 d [2, 6] [ng/g] | half-life [2, 7] [h] | percentage of the individual metabolite compared with the total concentration of ADP-related ([3]; Swine Feces) [%] | percentage of the individual metabolite compared with the total concentration of ADP-related ([3]; Swine Plasma) [%] | percentage of the individual metabolite compared with the total concentration of ADP-related ([3]; Swine Urine) [%] | Average percentage of ADP and its metabolites in total dose ([3]; Feces) [%] | Average percentage of ADP and its metabolites in total dose ([3]; Urine) [%] | also measured
1 | COc1cc(Cc2cnc(N)nc2N)cc(OC)c1N(C)C [A0, 2,4-Diamino-5-[4-(dimethylamino)-3,5-dimethoxybenzyl] pyrimidine] | 64.7 | 87.5 | 61.7 | 82.4 | 15400 ± 2120 | 7240 ± 1020 | 1150 ± 440 | 530 ± 220 | 780 ± 240 | 180 ± 60 | 8040 ± 1400 | 1860 ± 580 | 1150 ± 440 | 330 ± 100 | 55.4 | 89.1 | 53.0 | 42.3 | 16.0 | 33.4 | level of intact ADP ([1]; carp, single oral 5 mg/kg b. w. (Table S5)): 82.4 % of the oral dose; concentration at 7 d [2, 4]: 170 ± 20 ng/g; concentration at 14 d [2, 4]: 40 ± 10 ng/g; share of the sample radioactivity in the detected tissues ([2]; broilers liver, kidney, muscle, fat, over the sampling times): more than 42%; concentration at 3 d ([2]; broilers, fat, 5 mg/kg b. w.): 140 ± 20 ng/g; concentration at 7 d ([2]; broilers, fat, 5 mg/kg b. w.): 60 ± 10 ng/g; concentration at 7 d ([2]; broilers, liver, 5 mg/kg b. w.): 580 ± 80 ng/g; concentration at 14 d ([2]; broilers, liver, 5 mg/kg b. w.): 130 ± 50 ng/g; concentration at 3 d [2, 6]: 220 ± 30 ng/g; concentration at 7 d [2, 6]: 30 ng/g; half-life ([2]; broiler fat, after 5 mg/kg b. w. for 7 days, read-out: t1/2 of the individual compound (converted)): 71.5 h; half-life [2, 8]: 81.6 h; half-life ([2]; broiler muscle, after 5 mg/kg b. w. for 7 days, read-out: t1/2 of the individual compound (converted)): 40.1 h; half-life [2, 9]: 40.1 to 81.6 h; share of sample radioactivity ([3]; swine urine, period of 7–14 d (as the text reads), single oral dose): approximately 90%
2 | CNc1c(OC)cc(Cc2cnc(N)nc2N)cc1OC [A1, N-monodesmethyl-ADP] | 25.5 | 9.9 | 23.9 | 8.9 | 6060 ± 970 | 2920 ± 530 | 370 ± 100 | 200 ± 80 | 300 ± 100 | 60 ± 20 | 3090 ± 680 | 740 ± 120 | 370 ± 100 | 90 ± 20 | 16.3 | 9.7 | 23.7 | 11.4 | 2.9 | 13.3 | half-life [2, 8]: 25.2 h; half-life [2, 9]: 16.3 to 25.2 h
3 | COc1cc(Cc2cnc(N)nc2N)cc(OC)c1N [A2, N-didesmethyl-ADP] | 9.8 | 2.5 | 14.4 | 2.9 | 1200 ± 80 | 550 ± 140 |  | 60 ± 20 | 30 ± 10 |  | 380 ± 50 | 190 ± 50 |  | 10 |  | 1.1 | 15.0 | 11.8 | 0.5 | 11.3 | 
